Several values for one entry are separate records, joined by “and”; a condition that tells them apart may be missing. Identical values can stand only once.
Columns and labels:
[1] = tested on: H1299 cells; assay: MTT assay, H1299; format: cell-based, human; details: H1299 (high EGFR-expressing), 10 μM
Protocol: The cell lines MCF-7 and A431 were cultured in Dulbecco’s Modified Eagle’s Medium (DMEM, Gibco, USA), while HL-60, H1299, and A549 cells were maintained in RPMI-1640 medium (Gibco, USA). Both mediums were enriched with 10% fetal bovine serum and 1% penicillin/streptomycin. […] All cell cultures were incubated at 37°C in an atmosphere containing 5% CO2.
Cells in the exponential growth phase were seeded into 96-well plates and allowed to adhere overnight. Subsequently, they were treated in triplicate with various concentrations of the compounds (0, 1.56, 3.13, 6.25, 12.5, 25, 50, 100 µM), […]. After 24 h, 20 µL of Methyl-thiazolyldiphenyl-tetrazolium bromide (MTT, 5 mg/mL, Thermo Fisher Scientific) was added to each well and incubated for a minimum of 4 h. Following the incubation, the medium containing the compounds and MTT was removed from each well, and 200 µL of dimethyl sulfoxide (DMSO) was added. The plates were then shaken for 10 min at 37°C to dissolve the formazan crystals. The absorbance was measured using a microplate reader (BioTek Synergy 4) at a wavelength of 490 nm.

[2] = tested on: PARP1; assay: Western blotting of MCF-7 lysates, PARP1; format: cell-based, human; details: for PARP1 WB Normalized: control 0 µM 1.034604877
Protocol: (§1) MCF-7 cell lysates were prepared by rinsing the cells twice with PBS and then solubilizing them in lysis buffer (NP40 supplemented with protease and phosphatase inhibitor cocktails) on ice. The solubilization process involved rotating the lysis buffer/cell mixture end over end for 10 min at 4°C. After centrifugation for 10 min at 4°C to remove insoluble material, the protein concentration of the solubilized protein was determined using a BCA assay. Subsequently, samples were diluted in SDS sample buffer. Equivalent amounts of protein were separated by SDS-PAGE, transferred to PVDF membranes, and probed with the indicated antibody. Prior to incubation with primary antibodies overnight at 4°C, the membranes were blocked with 5% skim milk-TBST. The antibodies and their sources were as follows: PARP1 (1:500, Santa Cruz Biotechnology), Cleaved Caspase-3 (1:1000, Cell Signaling Technology), BAX (1:500, Santa Cruz Biotechnology), BCL-2 (1:500, Santa Cruz Biotechnology), and GAPDH (1:500, Santa Cruz Biotechnology). Following incubation with horseradish peroxidase-conjugated goat anti-mouse or goat anti-rabbit secondary antibody (Santa Cruz Biotechnology), the detected proteins were visualized using the Pierce Enhanced Chemiluminescence (ECL) reagent and a UV Products imaging system. Band intensities were quantified using the National Institutes of Health ImageJ software.

[3] = tested on: Cleaved Caspase-3; assay: Western blotting of MCF-7 lysates, cleaved caspase-3; format: cell-based, human; details: for Cleaved Caspase-3 WB Normalized: control 0 µM 0.213235397
Protocol: as §1

[4] = tested on: BAX; assay: Western blotting of MCF-7 lysates, BAX; format: cell-based, human; details: for BAX WB Normalized: control 0 µM 0.795076455
Protocol: as §1

[5] = molecular target: T1, EGFR L858R (Homo sapiens, UniProt P00533, L858R); assay: Kinase inhibition assay (ADP-Glo, Promega); format: biochemical; details: in vitro kinase assay; read-out: IC50 against EGFR L858R
T1 construct: purchased Promega Corporation, USA
T1 sequence (P00533 25-1210 L858R): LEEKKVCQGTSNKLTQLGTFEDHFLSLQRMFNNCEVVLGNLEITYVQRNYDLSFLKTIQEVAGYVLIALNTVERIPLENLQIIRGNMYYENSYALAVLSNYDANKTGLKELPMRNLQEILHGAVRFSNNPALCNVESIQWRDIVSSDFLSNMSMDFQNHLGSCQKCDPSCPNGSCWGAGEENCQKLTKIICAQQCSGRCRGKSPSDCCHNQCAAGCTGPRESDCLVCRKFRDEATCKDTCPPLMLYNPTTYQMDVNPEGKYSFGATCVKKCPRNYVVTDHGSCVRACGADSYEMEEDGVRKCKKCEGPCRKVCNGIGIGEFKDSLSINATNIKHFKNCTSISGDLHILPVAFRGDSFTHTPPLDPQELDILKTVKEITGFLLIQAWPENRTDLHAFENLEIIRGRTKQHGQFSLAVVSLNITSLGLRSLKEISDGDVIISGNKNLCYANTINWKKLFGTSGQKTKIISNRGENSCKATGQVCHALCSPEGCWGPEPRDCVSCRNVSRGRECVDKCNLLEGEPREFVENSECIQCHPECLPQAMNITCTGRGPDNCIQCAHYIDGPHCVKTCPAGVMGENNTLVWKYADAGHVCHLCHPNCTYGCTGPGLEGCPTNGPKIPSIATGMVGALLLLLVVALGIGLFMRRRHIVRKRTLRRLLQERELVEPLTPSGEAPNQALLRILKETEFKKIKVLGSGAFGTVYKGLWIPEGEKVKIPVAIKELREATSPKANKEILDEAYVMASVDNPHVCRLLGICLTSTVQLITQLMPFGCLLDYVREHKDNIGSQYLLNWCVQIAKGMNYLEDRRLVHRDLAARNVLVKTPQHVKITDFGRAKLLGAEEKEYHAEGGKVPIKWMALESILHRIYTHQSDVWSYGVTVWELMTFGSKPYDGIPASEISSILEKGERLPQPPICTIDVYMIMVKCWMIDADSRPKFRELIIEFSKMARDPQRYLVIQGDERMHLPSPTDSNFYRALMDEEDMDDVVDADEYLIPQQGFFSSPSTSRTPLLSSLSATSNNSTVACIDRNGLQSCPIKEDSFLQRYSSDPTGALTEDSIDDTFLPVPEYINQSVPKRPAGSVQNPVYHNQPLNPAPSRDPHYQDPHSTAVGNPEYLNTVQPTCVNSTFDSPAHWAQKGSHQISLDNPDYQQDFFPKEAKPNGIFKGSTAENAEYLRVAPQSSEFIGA
Protocol: (§2) The extracellular ligand-binding domain of EGFR, tagged with His, and the intracellular tyrosine kinase (TK) domain of EGFR, tagged with GST, were acquired from Sinobiological, China. […] Cell lines including MCF-7, A549, A431, H1299, HL-60, and MCF-10A were obtained from the China Infrastructure Cell Line Resources.
(§3) The experiments were conducted in accordance with the manufacturer’s guidelines (Promega). The procedure began with a kinase reaction, where 5 μL of 1× kinase buffer was utilized, and the mixture was incubated at room temperature for 60 min. This step was followed by the addition of 5 μL of ADP-Glo™ reagent to terminate the kinase reaction and to deplete any remaining ATP, with a subsequent incubation period of 40 min at room temperature. Next, 10 μL of kinase detection reagent was added to convert ADP back into ATP, and luciferase along with luciferin was introduced to facilitate ATP detection. This mixture was then incubated at room temperature for an additional 30 min. Detection was carried out using a BioTek Synergy4 instrument, and data analysis, including curve fitting and presentation, was performed using GraphPad Prism version 5.0.
(§4) All experiments were repeated at least three times, and the data are presented as mean ± standard deviation (SD). The statistical analyses were performed using Origin. EC50 or IC50 values were obtained by fitting the data to a four-parameter Hill model of the graph of log dose against percentage cell viability or inhibition from at least three sets of experiments. Difference between two groups were analyzed by Student’s t test (two-sided) and significance was set at p < 0.05. The specific details about statistical methods are introduced in respective figure legends.

[6] = molecular target: T2, EGFR L858R/T790M (Homo sapiens, UniProt P00533, L858R/T790M); assay: Kinase inhibition assay (ADP-Glo, Promega); format: biochemical; details: in vitro kinase assay; read-out: IC50 against EGFR L858R/T790M
T2 construct: purchased Promega Corporation, USA
T2 sequence (P00533 25-1210 T790M/L858R): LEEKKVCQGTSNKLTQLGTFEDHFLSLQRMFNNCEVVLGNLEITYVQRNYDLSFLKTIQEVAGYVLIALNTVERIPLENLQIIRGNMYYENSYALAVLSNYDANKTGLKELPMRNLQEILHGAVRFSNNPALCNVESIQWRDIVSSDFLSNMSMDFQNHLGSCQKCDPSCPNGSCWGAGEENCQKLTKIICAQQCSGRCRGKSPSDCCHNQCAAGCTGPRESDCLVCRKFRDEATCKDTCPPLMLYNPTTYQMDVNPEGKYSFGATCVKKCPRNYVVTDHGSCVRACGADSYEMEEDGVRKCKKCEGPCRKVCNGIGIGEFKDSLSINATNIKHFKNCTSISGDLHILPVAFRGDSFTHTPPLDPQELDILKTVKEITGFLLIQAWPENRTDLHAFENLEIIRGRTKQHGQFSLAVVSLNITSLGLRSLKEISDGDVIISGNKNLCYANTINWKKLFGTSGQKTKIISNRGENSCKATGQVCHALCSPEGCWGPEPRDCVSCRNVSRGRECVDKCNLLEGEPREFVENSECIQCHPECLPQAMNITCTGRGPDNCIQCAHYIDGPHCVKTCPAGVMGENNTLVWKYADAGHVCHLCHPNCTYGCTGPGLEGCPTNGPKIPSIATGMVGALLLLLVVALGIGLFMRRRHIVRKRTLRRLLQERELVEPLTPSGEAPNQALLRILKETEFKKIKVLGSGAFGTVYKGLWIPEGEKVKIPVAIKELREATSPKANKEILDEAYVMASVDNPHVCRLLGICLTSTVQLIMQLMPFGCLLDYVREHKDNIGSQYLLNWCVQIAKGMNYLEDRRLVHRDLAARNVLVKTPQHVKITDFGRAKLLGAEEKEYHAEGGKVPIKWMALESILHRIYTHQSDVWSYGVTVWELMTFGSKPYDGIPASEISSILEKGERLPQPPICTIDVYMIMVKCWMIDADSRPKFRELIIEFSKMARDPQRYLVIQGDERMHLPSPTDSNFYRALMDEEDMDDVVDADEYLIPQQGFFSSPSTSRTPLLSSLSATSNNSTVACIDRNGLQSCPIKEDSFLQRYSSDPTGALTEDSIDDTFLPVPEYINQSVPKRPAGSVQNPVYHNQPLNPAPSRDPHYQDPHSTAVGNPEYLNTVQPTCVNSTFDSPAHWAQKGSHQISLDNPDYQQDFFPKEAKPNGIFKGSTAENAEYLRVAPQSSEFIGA
Protocol: as §2, §3, §4

[7] = molecular target: T3, EGFR T790M (Homo sapiens, UniProt P00533, T790M); assay: Kinase inhibition assay (ADP-Glo, Promega); format: biochemical; details: in vitro kinase assay; read-out: IC50 against EGFR T790M
T3 construct: purchased Promega Corporation, USA
Protocol: as §2, §3, §4

[8] = molecular target: T4, WT EGFR (Homo sapiens, UniProt P00533); assay: Kinase inhibition assay (ADP-Glo, Promega); format: biochemical; details: in vitro kinase assay; read-out: IC50 against WT EGFR
T4 construct: purchased Promega Corporation, USA
T4 sequence (P00533 25-1210): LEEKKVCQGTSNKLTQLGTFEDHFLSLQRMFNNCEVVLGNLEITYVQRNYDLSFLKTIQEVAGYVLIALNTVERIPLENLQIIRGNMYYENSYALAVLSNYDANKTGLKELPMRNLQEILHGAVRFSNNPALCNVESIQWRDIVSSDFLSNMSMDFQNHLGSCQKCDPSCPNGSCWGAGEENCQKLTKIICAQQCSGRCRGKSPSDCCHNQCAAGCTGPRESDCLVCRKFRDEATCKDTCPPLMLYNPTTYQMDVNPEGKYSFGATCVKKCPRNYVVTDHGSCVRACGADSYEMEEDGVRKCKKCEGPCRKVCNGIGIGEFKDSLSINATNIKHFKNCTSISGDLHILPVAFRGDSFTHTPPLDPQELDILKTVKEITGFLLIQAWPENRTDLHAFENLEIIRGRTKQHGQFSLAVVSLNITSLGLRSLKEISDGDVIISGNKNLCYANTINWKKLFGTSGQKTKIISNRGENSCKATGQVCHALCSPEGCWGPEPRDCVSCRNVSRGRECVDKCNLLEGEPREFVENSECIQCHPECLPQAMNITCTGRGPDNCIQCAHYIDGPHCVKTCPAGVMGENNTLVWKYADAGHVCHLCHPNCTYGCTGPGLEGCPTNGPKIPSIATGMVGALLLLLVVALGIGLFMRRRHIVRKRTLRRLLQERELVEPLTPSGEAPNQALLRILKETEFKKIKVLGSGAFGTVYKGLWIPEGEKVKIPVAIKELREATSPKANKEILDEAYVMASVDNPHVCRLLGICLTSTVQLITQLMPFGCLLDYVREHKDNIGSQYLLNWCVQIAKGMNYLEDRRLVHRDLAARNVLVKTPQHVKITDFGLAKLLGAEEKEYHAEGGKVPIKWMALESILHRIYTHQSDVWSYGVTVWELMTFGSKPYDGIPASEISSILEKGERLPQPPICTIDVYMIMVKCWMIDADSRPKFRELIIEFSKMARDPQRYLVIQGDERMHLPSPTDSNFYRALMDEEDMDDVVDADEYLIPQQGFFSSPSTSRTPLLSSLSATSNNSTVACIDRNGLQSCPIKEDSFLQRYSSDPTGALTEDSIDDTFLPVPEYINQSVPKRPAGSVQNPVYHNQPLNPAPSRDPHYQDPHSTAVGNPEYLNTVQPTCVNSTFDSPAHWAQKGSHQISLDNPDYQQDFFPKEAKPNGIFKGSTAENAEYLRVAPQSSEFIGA
Protocol: as §2, §3, §4

[9] = molecular target: FGFR2 (Homo sapiens, UniProt P21802); assay: Kinase profiling; format: biochemical; details: one of the other seven tyrosine kinases
Protocol: as §3, with “5.0. […]; [Song et al., 2017]; [Abou-Zied et al., 2019]).” for “5.0.”

[10] = molecular target: HER4 (Homo sapiens, UniProt Q15303); assay: Kinase profiling; format: biochemical
HER4, sequence (Q15303 26-1308): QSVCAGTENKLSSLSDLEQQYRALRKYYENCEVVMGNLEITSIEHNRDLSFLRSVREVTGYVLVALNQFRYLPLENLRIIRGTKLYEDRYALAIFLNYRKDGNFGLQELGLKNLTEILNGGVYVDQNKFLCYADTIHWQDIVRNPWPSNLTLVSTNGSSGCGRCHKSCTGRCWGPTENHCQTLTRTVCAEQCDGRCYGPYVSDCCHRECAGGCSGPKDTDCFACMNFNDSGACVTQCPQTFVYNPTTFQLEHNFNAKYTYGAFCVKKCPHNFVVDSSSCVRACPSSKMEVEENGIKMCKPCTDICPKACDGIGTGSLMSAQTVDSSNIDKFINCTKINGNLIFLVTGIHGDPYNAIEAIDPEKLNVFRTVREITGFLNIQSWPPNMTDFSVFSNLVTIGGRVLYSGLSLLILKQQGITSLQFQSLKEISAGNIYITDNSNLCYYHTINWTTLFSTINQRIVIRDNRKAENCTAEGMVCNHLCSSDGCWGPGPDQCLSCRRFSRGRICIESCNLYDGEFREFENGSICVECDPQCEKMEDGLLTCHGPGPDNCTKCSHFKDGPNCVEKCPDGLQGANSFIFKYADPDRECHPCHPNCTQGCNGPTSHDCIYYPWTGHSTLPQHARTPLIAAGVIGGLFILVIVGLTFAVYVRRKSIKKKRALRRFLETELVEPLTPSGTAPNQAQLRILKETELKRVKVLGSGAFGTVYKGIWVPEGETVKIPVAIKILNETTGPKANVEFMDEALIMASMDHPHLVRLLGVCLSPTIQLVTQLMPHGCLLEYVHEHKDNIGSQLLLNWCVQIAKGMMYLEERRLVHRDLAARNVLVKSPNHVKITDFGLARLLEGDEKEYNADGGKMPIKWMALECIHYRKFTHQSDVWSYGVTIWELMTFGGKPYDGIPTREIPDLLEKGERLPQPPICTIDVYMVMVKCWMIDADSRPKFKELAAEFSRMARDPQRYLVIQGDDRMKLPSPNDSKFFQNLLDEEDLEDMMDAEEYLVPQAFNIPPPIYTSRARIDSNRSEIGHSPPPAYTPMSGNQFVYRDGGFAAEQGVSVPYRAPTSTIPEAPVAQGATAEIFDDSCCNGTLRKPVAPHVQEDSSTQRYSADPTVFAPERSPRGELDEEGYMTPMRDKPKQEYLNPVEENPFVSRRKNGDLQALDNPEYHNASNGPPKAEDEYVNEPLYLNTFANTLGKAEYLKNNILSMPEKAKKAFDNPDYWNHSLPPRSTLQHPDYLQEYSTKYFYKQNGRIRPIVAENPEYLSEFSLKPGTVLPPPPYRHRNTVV
Protocol: as §3, with “5.0. […]; [Song et al., 2017]; [Abou-Zied et al., 2019]).” for “5.0.”

COC(=O)C/C(C)=C/C(=O)O[C@@H]1C[C@@H](C)[C@H]2[C@@H](C=C[C@H](CC(C)C)[C@]2(C)C(=O)/C=C\O)[C@@H]1O [Tandyukisin]
cell lethality percentage [1]: 60.3% ± 3.9%
PARP1 WB Gray Value ([2]; 5 µM): 43160.066
PARP1 WB Normalized ([2]; 5 µM): 0.9844
PARP1 WB Gray Value ([2]; 10 µM): 33044.409
PARP1 WB Normalized ([2]; 10 µM): 0.759
PARP1 WB Gray Value ([2]; 20 µM): 24731.459
PARP1 WB Normalized ([2]; 20 µM): 0.7232
expression level of PARP1 ([2]; MCF-7, upon treatment): decreased
Cleaved Caspase-3 WB Gray Value ([3]; 5 µM): 17172.004
Cleaved Caspase-3 WB Normalized ([3]; 5 µM): 0.3916
Cleaved Caspase-3 WB Gray Value ([3]; 10 µM): 22734.418
Cleaved Caspase-3 WB Normalized ([3]; 10 µM): 0.5222
Cleaved Caspase-3 WB Gray Value ([3]; 20 µM): 173083.238
Cleaved Caspase-3 WB Normalized ([3]; 20 µM): 5.061
expression level of cleaved caspase-3 protein ([3]; MCF-7, upon treatment): increased
BAX WB Gray Value ([4]; 5 µM): 19561.731
BAX WB Normalized ([4]; 5 µM): 0.4461
BAX WB Gray Value ([4]; 10 µM): 48768.744
BAX WB Normalized ([4]; 10 µM): 1.12
BAX WB Gray Value ([4]; 20 µM): 33049.489
BAX WB Normalized ([4]; 20 µM): 0.9664
IC50 [5]: 3.1 ± 0.1 nM
IC50 [6]: 237 ± 28 nM
IC50 [7]: 32.6 ± 0.6 nM
IC50 [8]: 10.6 nM and 10 nM and ~10 nM
IC50 [9]: > 100 µM
IC50 [10]: 31.1 ± 0.1 nM

From PMC11094307, “Marine-derived EGFR inhibitors: novel compounds targeting breast cancer growth and drug resistance” (Frontiers in Pharmacology, 2024)
